From patent US20240299290A1, “METHODS AND COMPOSITIONS FOR RAPID DELIVERY OF ANTI-SEIZURE THERAPEUTICS” (Neurelis, Inc., priority 2021, published 2024)
Several values for one entry are separate records, joined by “and”; a condition that tells them apart may be missing. Equal entries are not always repeated. Entries after “also recorded” stand apart in the source; their conditions may differ. Where two headings read alike, the source gives them in different places.

Experiments:
[1] = test system: seizure activity (beta frequency by EEG); assay: Change in beta frequency by EEG; details: intranasal 20 mg via intranasal composition
[2] = Safety results of the PK profile crossover study
[3] = test system: seizure; assay: Rapid onset of therapeutic effect: seizure cessation measured by EEG after intranasal diazepam; details: for Time to Seizure Cessation: dosed during seizure, individual subjects
[4] = not given; remark: listed apart in the source
[5] = 24 subjects, all three diazepam treatments
[6] = safety population, 163 subjects

With `CN1C(=O)CN=C(c2ccccc2)c2cc(Cl)ccc21` [diazepam, 7-chloro-1,3-dihydro-1-methyl-5-phenyl-2H-1,4-benzodiazepin-2-one] the “time to changes in beta frequency (EEG)” value [1] was no more than 6 min, the “AE: epistaxis” value [2, 5] was 7 subjects and the “AE: somnolence” value [2, 5] was 6 subjects. The “AE: somnolence” value ([2]; each of the intranasal dosages (suspension, solution)) was 1 subject, the reports of epistaxis ([2]; intranasal) was 3 events and the tolerability ([2]; intranasal suspension and solution, 10 mg) was “well-tolerated”. For the same compound, the “Time to Seizure Cessation” value ([3]; 10 mg intranasal) was 1 min and <1 min (2×), the “Time to Seizure Cessation” value ([3]; 15 mg intranasal) was <1 min (6×) and 1 min (2×) and the “Time to Seizure Cessation” value ([3]; 20 mg intranasal) was <1 min (12×) and 1 min. The “Cessation of the seizure, as measured by EEG” value ([3]; 10, 15 or 20 mg intranasal during active seizure, all but one of the subjects) was no more than 1 min, the “subsequent seizure during the period of observation” value ([3]; intranasal, dosed after seizure had ended) was “no subsequent seizure was experienced by any of the subjects” and the “TEAE: seizure, nasopharyngitis, nasal discomfort (each)” value (2 of 57 subjects each) was 3.5%. The “TEAE: dysgeusia” value (3 of 57 subjects) was 5.3%, the “PK profile in seizure versus non-seizure state” value (5-20 mg intranasal, subjects with epilepsy, any age group or dose) was “not notably altered” and the “subjects with treatment-related AEs” value (8 of 57 subjects) was 14.0%. The “subjects with at least one AE” value (17 out of 57 subjects) was 29.8%, the suicidal ideation post-dosing (57 subjects) was “No subjects” and the respiratory depression ([4]; 163 subjects) was “no incidents”. The “Treatment-related AE: epistaxis, dysgeusia, somnolence (each)” value [4, 6] was 3 subjects, the “Treatment-related AE: headache” value [4, 6] was 4 subjects and the “Treatment-related AE: nasal discomfort” value [4, 6] was 10 subjects. The “each of the 14 single-subject treatment-related AEs (nasal mucosal disorder to rash)” value [4, 6] was 0.6%, the “subjects with at least one AE” value [4, 6] was 134 subjects and the “subjects with at least one AE/TEAE” value [4, 6] was 82.2%. The “subjects with treatment-related AEs” value [4, 6] was 30 subjects, the “subjects with treatment-related AEs/TEAEs” value [4, 6] was 18.4% and the “treatment-related AEs that were serious” value [4, 6] was “None”. For the same compound, the overall safety conclusion ([4]; subjects with epilepsy, intranasal) was “safe and well tolerated; also recorded: good safety profile”.
